From ChEMBL document CHEMBL5608247, “Development of a First-in-Class DNMT1/HDAC Inhibitor with Improved Therapeutic Potential and Potentiated Antitumor Immunity” (J Med Chem, 2024)

Key:
Histone deacetylase = assay: Inhibition of HDAC extracted from human HeLa cell nucleus using Boc-Lys(Ac)-AMC as substrate preincubated for 5 mins followed by substrate addition measured after 30 mins by fluorescence based assay; type: subcellular
[1] = biological target: T1, DNA (cytosine-5)-methyltransferase 1 (Homo sapiens, UniProt P26358); assay: Inhibition of DNMT1 (unknown origin) at 100 uM relative to control
Target sequence in this assay (P26358 whole entry): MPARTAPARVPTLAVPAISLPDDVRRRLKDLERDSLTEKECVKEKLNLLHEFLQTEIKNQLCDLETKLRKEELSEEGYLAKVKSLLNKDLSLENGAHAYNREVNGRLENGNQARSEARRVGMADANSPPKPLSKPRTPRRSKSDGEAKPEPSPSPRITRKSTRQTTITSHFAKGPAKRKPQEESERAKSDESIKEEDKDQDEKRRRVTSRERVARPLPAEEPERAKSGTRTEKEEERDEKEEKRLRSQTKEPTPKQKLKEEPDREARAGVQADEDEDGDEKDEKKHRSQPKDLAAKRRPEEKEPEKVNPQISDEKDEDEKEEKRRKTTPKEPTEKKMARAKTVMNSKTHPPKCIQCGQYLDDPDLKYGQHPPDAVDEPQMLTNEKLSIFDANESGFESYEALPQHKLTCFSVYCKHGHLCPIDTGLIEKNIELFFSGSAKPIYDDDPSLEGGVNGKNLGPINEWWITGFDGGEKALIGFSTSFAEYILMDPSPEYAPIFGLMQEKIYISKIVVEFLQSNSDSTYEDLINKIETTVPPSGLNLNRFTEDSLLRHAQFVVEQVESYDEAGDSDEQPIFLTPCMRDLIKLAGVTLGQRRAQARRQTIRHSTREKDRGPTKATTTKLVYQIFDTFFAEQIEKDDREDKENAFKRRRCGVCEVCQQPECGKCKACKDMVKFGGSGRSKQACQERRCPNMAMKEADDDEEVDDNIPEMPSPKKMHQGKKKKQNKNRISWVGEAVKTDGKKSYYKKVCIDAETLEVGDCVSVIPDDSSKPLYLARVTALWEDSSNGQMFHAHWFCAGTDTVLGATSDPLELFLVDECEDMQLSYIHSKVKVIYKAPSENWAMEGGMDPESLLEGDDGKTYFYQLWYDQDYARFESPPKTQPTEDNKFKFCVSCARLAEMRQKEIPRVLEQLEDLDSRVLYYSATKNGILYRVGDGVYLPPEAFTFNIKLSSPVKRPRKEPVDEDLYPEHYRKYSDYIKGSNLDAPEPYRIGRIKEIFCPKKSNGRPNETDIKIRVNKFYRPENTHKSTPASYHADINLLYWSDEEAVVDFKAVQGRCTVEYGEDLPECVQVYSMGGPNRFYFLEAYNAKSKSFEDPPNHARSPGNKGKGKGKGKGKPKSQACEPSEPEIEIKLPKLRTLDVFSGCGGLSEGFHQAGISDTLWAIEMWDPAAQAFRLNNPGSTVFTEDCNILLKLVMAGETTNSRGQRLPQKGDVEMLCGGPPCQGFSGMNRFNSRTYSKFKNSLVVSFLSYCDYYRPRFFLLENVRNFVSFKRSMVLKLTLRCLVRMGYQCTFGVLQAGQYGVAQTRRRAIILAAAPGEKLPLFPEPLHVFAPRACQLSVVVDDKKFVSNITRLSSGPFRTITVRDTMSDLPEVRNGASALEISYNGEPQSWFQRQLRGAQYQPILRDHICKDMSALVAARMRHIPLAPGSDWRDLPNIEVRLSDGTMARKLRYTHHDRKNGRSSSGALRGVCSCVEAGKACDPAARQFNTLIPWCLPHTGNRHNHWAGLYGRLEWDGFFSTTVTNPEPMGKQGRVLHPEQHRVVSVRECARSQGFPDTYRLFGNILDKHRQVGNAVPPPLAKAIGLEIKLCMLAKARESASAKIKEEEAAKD

[2] = biological target: T2, DNA (cytosine-5)-methyltransferase 3B (Homo sapiens, UniProt Q9UBC3); assay: Inhibition of DNMT3B (unknown origin) at 100 uM relative to control
[3] = biological target: DNA (cytosine-5)-methyltransferase 3A (Homo sapiens) (UniProt Q9Y6K1); assay: Inhibition of DNMT3A (unknown origin) at 100 uM relative to control
Histone deacetylase 1 = Histone deacetylase 1 (Homo sapiens, UniProt Q13547); assay: Inhibition of HDAC1 (unknown origin)
[4] = biological target: T3, Protein deacetylase HDAC6 (Homo sapiens, UniProt Q9UBN7); assay: Inhibition of HDAC6 (unknown origin)
T3 sequence (Q9UBN7 whole entry): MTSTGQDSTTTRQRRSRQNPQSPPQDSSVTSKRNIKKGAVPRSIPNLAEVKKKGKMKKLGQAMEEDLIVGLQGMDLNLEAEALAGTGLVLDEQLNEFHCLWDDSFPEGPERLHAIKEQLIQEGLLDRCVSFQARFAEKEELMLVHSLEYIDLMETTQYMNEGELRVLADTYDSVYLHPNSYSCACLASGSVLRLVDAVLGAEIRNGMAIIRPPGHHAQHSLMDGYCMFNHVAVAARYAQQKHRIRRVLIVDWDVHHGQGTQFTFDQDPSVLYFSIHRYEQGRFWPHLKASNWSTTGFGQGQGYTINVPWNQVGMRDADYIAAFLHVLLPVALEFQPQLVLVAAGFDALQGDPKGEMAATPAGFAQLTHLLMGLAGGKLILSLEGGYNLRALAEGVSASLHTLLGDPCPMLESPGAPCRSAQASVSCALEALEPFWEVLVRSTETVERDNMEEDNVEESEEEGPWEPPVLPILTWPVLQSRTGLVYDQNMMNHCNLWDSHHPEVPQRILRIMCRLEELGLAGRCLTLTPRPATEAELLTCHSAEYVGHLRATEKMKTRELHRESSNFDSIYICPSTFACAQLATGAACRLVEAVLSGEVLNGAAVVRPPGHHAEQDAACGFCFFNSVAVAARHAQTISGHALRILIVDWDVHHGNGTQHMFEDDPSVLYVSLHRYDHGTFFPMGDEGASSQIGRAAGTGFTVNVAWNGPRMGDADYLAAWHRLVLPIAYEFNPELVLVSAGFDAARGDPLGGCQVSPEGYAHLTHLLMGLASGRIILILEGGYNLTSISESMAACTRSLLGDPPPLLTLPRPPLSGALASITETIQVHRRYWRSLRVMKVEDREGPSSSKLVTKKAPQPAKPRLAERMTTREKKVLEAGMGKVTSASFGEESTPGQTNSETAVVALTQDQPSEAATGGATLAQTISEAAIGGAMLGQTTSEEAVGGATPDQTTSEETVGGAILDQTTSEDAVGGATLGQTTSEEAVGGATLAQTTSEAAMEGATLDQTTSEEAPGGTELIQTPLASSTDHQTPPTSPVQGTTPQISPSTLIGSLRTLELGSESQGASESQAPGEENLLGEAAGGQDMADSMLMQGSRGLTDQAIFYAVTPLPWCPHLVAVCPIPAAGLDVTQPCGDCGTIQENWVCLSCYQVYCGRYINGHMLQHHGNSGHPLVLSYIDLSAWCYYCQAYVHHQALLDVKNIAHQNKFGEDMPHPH

[5] = biological target: T1, DNA (cytosine-5)-methyltransferase 1; assay: Inhibition of NLuc-fused DNMT1 expressed hypomorphic in human HCT-116 cells assessed as TSG repoter activation at 3 uM incubated for 72 hrs by Nano-Glo Luciferase assay; type: cell-based
Target sequence in this assay (P26358 whole entry, looked up): as the sequence (P26358 whole entry) above

[6] = biological target: T1, DNA (cytosine-5)-methyltransferase 1; assay: Induction of thermal stabilization of N-terminal 6xHis-FLAG-tagged […] human DNMT1 (698 to 1616 residues) extracted from Sf9 cells assessed as change in melting temperature at 10 uM by SYPRO Orange dye based PTS assay (reference value: 0.0 degreeC); type: cell-based
Target sequence in this assay (P26358 whole entry): as the sequence (P26358 whole entry) above

MV4-11 [7] = assay: Antiproliferative activity against human MV4-11 cells incubated for 96 hrs by CCK8 assay; type: functional, cell-based; conditions: MV4-11, 96 h
MV4-11 [8] = assay: Antitumor activity against human MV4-11 cells xenografted in BALB/c nude mouse at 45 mg/kg, ip qd treated for 19 days relative to control; type: functional; conditions: MV4-11, 456 h, time 19 day, read-out: TGI
[9] = biological target: T2, DNA (cytosine-5)-methyltransferase 3B; assay: Inhibition of DNMT3B (unknown origin)

Histone deacetylase 1, sequence (Q13547 whole entry): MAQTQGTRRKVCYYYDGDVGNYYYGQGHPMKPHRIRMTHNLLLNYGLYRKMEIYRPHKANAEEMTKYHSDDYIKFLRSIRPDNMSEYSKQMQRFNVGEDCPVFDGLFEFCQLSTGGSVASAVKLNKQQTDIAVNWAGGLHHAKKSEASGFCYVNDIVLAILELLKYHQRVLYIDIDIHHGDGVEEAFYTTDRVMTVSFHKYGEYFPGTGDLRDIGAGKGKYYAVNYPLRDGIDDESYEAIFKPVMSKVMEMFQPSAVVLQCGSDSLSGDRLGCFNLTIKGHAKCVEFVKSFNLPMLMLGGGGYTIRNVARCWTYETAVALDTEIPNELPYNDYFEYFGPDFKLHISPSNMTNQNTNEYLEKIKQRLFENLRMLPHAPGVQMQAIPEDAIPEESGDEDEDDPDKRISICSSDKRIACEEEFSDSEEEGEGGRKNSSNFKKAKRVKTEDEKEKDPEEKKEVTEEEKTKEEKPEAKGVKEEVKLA
DNA (cytosine-5)-methyltransferase 3A (Homo sapiens), sequence (Q9Y6K1 whole entry, looked up): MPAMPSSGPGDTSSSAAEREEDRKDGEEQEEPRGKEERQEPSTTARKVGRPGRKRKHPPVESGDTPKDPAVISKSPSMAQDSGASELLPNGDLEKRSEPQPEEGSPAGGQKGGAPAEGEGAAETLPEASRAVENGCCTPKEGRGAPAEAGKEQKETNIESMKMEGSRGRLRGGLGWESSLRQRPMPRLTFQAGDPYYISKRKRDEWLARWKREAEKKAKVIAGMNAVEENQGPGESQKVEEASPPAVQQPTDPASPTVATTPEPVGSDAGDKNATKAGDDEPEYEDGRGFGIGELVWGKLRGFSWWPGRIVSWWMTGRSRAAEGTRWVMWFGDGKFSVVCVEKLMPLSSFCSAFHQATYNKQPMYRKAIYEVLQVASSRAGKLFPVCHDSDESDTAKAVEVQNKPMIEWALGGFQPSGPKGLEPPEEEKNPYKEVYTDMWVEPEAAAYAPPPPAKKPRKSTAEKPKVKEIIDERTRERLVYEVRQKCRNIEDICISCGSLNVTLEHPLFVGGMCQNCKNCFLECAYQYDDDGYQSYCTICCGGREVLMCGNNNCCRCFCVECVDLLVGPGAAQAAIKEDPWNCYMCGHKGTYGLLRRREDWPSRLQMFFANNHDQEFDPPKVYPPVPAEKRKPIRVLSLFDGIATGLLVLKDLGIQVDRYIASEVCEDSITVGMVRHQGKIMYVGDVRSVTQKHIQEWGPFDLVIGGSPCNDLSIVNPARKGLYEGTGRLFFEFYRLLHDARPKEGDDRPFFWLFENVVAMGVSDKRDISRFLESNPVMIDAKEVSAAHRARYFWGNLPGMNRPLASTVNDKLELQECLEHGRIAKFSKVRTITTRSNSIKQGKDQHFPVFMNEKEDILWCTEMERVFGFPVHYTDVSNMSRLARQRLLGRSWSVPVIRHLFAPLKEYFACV

IC50 (Histone deacetylase) [nM]	Compound	also measured
1070	CCc1c(C#N)c(SC(C(N)=O)c2ccccc2)nc(N2CCC(NC(=O)CCCC(=O)NO)CC2)c1C#N (stereo unspecified)	–
> 20000	CCc1c(C#N)c(SC(C(N)=O)c2ccccc2)nc(N2CCC(NCc3ccc(C(=O)Nc4ccccc4N)cc3)CC2)c1C#N (stereo unspecified)	–
> 5000	CCc1c(C#N)c(SC(C(N)=O)c2ccccc2)nc(N2CCC(NCc3ccc(C(=O)NO)cc3)CC2)c1C#N (stereo unspecified)	–
> 5000	CCc1c(C#N)c(SC(C(N)=O)c2ccccc2)nc(N2CCC(NC(=O)CCCCC(=O)NO)CC2)c1C#N (stereo unspecified)	–
330	CCc1c(C#N)c(SC(C(N)=O)c2ccccc2)nc(N2CCC(NC(=O)CCCC(=O)NCc3ccc(C(=O)NO)cc3)CC2)c1C#N (stereo unspecified)	–
100	CCc1c(C#N)c(CN(C)C2CCN(c3ncc(C(=O)NO)cn3)CC2)nc(SC(C(N)=O)c2ccccc2)c1C#N (stereo unspecified)	–
160	CCc1c(C#N)c(SC(C(N)=O)c2ccccc2)nc(N(C)CCNCc2ccc(/C=C/C(=O)NO)cc2)c1C#N (stereo unspecified)	–
1160	CCc1c(C#N)c(SC(C(N)=O)c2ccccc2)nc(N2CCC(NC(=O)CCCCCCCC(=O)NO)CC2)c1C#N (stereo unspecified)	–
> 20000	CCc1c(C#N)c(SC(C(N)=O)c2ccccc2)nc(N2CCC(NC(=O)CCCC(=O)Nc3ccccc3N)CC2)c1C#N (stereo unspecified)	–
280	CCc1c(C#N)c(SC(C(N)=O)c2ccccc2)nc(N2CCC(NC(=O)CCCCC(=O)Nc3ccc(C(=O)NO)cc3)CC2)c1C#N (stereo unspecified)	–
230	CCc1c(C#N)c(SC(C(N)=O)c2ccccc2)nc(N(C)C2CCN(c3ncc(C(=O)NO)cn3)CC2)c1C#N (stereo unspecified)	inhibition [1]: 69.9%; inhibition [2]: 48.5%; inhibition [3]: 23.4%; IC50 (Histone deacetylase 1): 56.8 nM; IC50 [4]: 17.4 nM
–	CCc1c(C#N)c(S[C@H](C(N)=O)c2ccccc2)nc(N2CCC(CNCc3ccc(/C=C/C(=O)NO)cc3)CC2)c1C#N	EC50 [5]: 1180 nM; ΔTm [6]: 9 °C
570	CCc1c(C#N)c(SC(C(N)=O)c2ccccc2)nc(N2CCC(NC(=O)CCCC(=O)Nc3ccc(C(=O)NO)cc3)CC2)c1C#N (stereo unspecified)	–
80	CCc1c(C#N)c(SC(C(N)=O)c2ccccc2)nc(N2CCC(NCc3ccc(C(=O)NCc4ccc(/C=C/C(=O)NO)cc4)cc3)CC2)c1C#N (stereo unspecified)	–
140	CCc1c(C#N)c(SC(C(N)=O)c2ccccc2)nc(N2CCN(Cc3ccc(/C=C/C(=O)NO)cc3)CC2)c1C#N (stereo unspecified)	–
230	CCc1c(C#N)c(SC(C(N)=O)c2ccccc2)nc(N2CCC(NC(=O)CCC(=O)Nc3ccc(/C=C/C(=O)NO)cc3)CC2)c1C#N (stereo unspecified)	–

IC50 (Histone deacetylase) [nM]	Compound	also measured
230	CCc1c(C#N)c(SC(C(N)=O)c2ccccc2)nc(N2CCC(NC(=O)CCC(=O)NCc3ccc(C(=O)NO)cc3)CC2)c1C#N (stereo unspecified)	–
190	CCc1c(C#N)c(SC(C(N)=O)c2ccccc2)nc(N2CCC(Nc3ncc(C(=O)NO)cn3)CC2)c1C#N (stereo unspecified)	–
> 20000	CCc1c(C#N)c(SC(C(N)=O)c2ccccc2)nc(N2CCC(NC(=O)c3ccc(C(=O)Nc4ccccc4N)cc3)CC2)c1C#N (stereo unspecified)	–
300	CCc1c(C#N)c(SC(C(N)=O)c2ccccc2)nc(N2CCC(NC(=O)CCCCCCC(=O)NO)CC2)c1C#N (stereo unspecified)	–
130	CCc1c(C#N)c(SC(C(N)=O)c2ccccc2)nc(N2CCC(NCc3ccc(/C=C/C(=O)NO)cc3)CC2)c1C#N (stereo unspecified)	IC50 (MV4-11 [7]): 660 nM; inhibition in vivo at 45 mg/kg (MV4-11 [8]): 80%
> 5000	CCc1c(C#N)c(SC(C(N)=O)c2ccccc2)nc(N2CCC(NC(=O)CCC(=O)NO)CC2)c1C#N (stereo unspecified)	–
–	CCc1c(C#N)c(SC(C(N)=O)c2ccccc2)nc(N2CCC(CNCc3ccc(/C=C/C(=O)NO)cc3)CC2)c1C#N (stereo unspecified)	inhibition in vivo at 45 mg/kg (MV4-11 [8]): 95%; EC50 [5]: 1090 nM; ΔTm [6]: 11 °C
250	CCc1c(C#N)c(SC(C(N)=O)c2ccccc2)nc(N2CCC(NCc3ccc(C(=O)NCc4ccc(C(=O)NO)cc4)cc3)CC2)c1C#N (stereo unspecified)	–
> 20000	CCc1c(C#N)c(SC(C(N)=O)c2ccccc2)nc(N2CCC(NC(=O)Cc3ccc(C(=O)Nc4ccccc4N)cc3)CC2)c1C#N (stereo unspecified)	–
–	O=C(NO)C1CCN(CC(O)COC(Cn2c3ccccc3c3ccccc32)Cn2c3ccccc3c3ccccc32)CC1 (stereo unspecified)	IC50 [9]: 1320 nM
1300	CCc1c(C#N)c(SC(C(N)=O)c2ccccc2)nc(N2CCC(NC(=O)CCC(=O)Nc3ccc(C(=O)NO)cc3)CC2)c1C#N (stereo unspecified)	–
870	CCc1c(C#N)c(SC(C(N)=O)c2ccccc2)nc(N2CCC(NC(=O)c3ccc(C(=O)NO)cc3)CC2)c1C#N (stereo unspecified)	–
60	CCc1c(C#N)c(SC(C(N)=O)c2ccccc2)nc(N2CCN(c3ncc(C(=O)NO)cn3)CC2)c1C#N (stereo unspecified)	–
140	CCc1c(C#N)c(SC(C(N)=O)c2ccccc2)nc(N2CCC(CNc3ncc(C(=O)NO)cn3)CC2)c1C#N (stereo unspecified)	–
210	CCc1c(C#N)c(SC(C(N)=O)c2ccccc2)nc(N2CCC(NC(=O)CCCCCC(=O)NO)CC2)c1C#N (stereo unspecified)	–
